This assay deals with T1, HMOX1 (heme oxygenase 1) (Homo sapiens, UniProt P09601).
T1 sequence (P09601 1-288): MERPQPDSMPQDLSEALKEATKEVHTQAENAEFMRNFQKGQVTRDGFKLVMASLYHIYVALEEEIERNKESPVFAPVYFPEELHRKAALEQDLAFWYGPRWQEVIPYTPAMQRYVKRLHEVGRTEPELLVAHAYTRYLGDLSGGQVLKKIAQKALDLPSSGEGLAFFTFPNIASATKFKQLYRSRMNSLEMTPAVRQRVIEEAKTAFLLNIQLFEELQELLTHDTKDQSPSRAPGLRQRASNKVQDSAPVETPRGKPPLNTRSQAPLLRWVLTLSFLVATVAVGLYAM
The assay is described as follows: SPR ([…] SIL); supported by CETSA and DARTS. The class given is binding.

The values below come from PMC11655547, “Dual functions of silibinin in attenuating aortic dissection via regulating iron homeostasis and endoplasmic reticulum stress against ferroptosis” (Cell Death & Disease, 2024).

Each structure is given as a SMILES string.

As to `COc1cc(C2Oc3cc([C@H]4Oc5cc(O)cc(O)c5C(=O)[C@@H]4O)ccc3OC2CO)ccc1O` (stereo partly shown) [SIL, Silibinin], the Kd (in general, a measure of binding affinity in units of concentration) amounted to 46 µM.
